Source: paper PMC4588880, “Three genes encoding AOP2, a protein involved in aliphatic glucosinolate biosynthesis, are differentially expressed in Brassica rapa” (Journal of Experimental Botany, 2015)

Tests used:
Test in all cases: HPLC of desulfoglucosinolates, conversion to 3-butenyl glucosinolate
Format in all cases: biochemical
Conditions in all cases: 10 mM 2-oxoglutarate, 10 mM ascorbate, 200 uM FeSO4, 200 mM sucrose, 28 °C, 4 h
BrAOP2.3 = molecular target: T1, BrAOP2.3 (Brassica rapa, UniProt M4DPT0)
T1 construct: full-length 428 aa, N-terminal thioredoxin/His fusion (pET-32a), E. coli BL21(DE3), Ni-NTA; chromosome A02
T1 sequence (M4DPT0 1-428): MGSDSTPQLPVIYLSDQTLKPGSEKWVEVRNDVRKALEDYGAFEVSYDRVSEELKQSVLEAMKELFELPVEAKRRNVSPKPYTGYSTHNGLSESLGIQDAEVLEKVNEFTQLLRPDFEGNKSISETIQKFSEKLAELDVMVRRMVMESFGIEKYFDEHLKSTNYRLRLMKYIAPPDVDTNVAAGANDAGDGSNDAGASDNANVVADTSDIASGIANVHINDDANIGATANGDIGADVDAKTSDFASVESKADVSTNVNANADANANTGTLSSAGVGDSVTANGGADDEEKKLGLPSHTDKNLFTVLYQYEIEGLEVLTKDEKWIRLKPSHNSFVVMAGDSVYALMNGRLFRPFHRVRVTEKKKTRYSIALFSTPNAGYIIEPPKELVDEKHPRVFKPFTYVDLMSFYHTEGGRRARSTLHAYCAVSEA

BrAOP2.1 [1] = molecular target: T2, BrAOP2.1 (Brassica rapa, UniProt M4EZD7, H308L)
T2 construct: full-length 439 aa, N-terminal thioredoxin/His fusion (pET-32a), E. coli BL21(DE3), Ni-NTA; chromosome A09

BrAOP2.1 [2] = molecular target: T3, BrAOP2.1 (Brassica rapa, UniProt M4EZD7)
T3 construct: full-length 439 aa, N-terminal thioredoxin/His fusion (pET-32a), E. coli BL21(DE3), Ni-NTA; chromosome A09
T3 sequence (M4EZD7 1-439): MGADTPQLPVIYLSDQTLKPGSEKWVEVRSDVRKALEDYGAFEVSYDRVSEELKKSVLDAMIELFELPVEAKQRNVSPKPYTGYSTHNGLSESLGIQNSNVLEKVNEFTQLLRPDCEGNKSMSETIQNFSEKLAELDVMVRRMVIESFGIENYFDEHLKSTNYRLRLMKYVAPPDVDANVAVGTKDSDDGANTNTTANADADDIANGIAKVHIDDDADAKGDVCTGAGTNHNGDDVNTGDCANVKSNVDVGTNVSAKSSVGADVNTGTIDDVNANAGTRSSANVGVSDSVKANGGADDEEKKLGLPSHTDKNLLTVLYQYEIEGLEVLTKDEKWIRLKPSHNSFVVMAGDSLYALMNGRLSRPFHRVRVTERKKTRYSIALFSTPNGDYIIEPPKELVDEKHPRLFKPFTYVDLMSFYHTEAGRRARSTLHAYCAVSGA

T2 sequence (M4EZD7 entry or part of it H308L): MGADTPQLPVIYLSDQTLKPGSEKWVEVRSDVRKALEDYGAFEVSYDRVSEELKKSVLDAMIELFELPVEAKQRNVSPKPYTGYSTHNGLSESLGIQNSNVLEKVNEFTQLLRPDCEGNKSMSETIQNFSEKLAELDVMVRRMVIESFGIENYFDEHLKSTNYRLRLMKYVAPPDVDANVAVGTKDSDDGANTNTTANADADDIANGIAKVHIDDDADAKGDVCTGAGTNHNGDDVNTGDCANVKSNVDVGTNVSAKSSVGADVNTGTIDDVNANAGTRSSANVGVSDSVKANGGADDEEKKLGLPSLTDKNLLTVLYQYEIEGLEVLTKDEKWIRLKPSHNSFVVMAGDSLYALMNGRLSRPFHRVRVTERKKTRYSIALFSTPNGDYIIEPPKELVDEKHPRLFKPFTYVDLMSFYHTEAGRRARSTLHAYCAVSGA

C[S+]([O-])CCCC/C(=N/OS(=O)(=O)O)S[C@@H]1O[C@H](CO)[C@@H](O)[C@H](O)[C@H]1O (stereo partly drawn) [glucoraphanin]
HPLC of desulfoglucosinolates, conversion to 3-butenyl glucosinolate (BrAOP2.3): all three BrAOP2 proteins successfully catalysed the conversion of GRA to NAP
HPLC of desulfoglucosinolates, conversion to 3-butenyl glucosinolate (BrAOP2.1 [1]): the purified H308L mutant enzyme was shown to still catalyse the conversion of GRA
HPLC of desulfoglucosinolates, conversion to 3-butenyl glucosinolate (BrAOP2.1 [2]): all three BrAOP2 proteins successfully catalysed the conversion of GRA to NAP
